From PMC4268243 (Nuclear medicine and biology, 2014)

Key:
[1] = tested on: A549 lung adenocarcinoma cells; assay: Amino acid uptake and inhibition in A549 cells; format: cell-based, human; conditions: A549, 30 minutes incubation
[2] = tested on: DU145 androgen-independent prostate carcinoma cells; assay: Amino acid uptake and inhibition in DU145 cells; format: cell-based, human; conditions: DU145, 30 minutes incubation
U87 glioblastoma cells = assay: Amino acid uptake and inhibition in U87 cells; format: cell-based, human; conditions: U87, 30 minutes incubation
[3] = tested on: SKOV3 estrogen-positive ovarian adenocarcinoma cells; assay: Amino acid uptake and inhibition in SKOV3 cells; format: cell-based, human; conditions: SKOV3, 30 minutes incubation
U87 tumor xenograft = assay: Biodistribution in U87 tumor-bearing SCID mice; format: in vivo; conditions: listed as (S)-[^18F]FAMP 1
[4] = tested on: MDA MB468 tumor xenograft; assay: Biodistribution in MDA MB468 tumor-bearing SCID mice; format: in vivo
SKOV3 tumor xenograft = assay: Biodistribution in SKOV3 tumor-bearing SCID mice; format: in vivo; conditions: listed as (S)-[^18F]FAMP 1
[5] = tested on: human A549, DU145, U87, MDA MB468 and SKOV3 tumor cells; assay: Amino acid uptake and inhibition, summary over the five tumor cell lines; format: cell-based
[6] = tested on: SCID mice xenograft tumor models; format: in vivo; conditions: in most cases, over tumors and time points
[7] = tested on: rat orthotopic brain tumor model; conditions: rat orthotopic brain tumor model, 60 min; cited from earlier work
[8] = 15 min post injection, listed as (S)-[^18F]FAMP 1
[9] = 30 min post injection, listed as (S)-[^18F]FAMP 1
[10] = 60 min post injection, listed as (S)-[^18F]FAMP 1
[11] = 120 min post injection, listed as (S)-[^18F]FAMP 1

**Q.** What does the source list for CC(N)(C[18F])C(=O)O [(S)-[^18F]1] [2-amino-3-[^18F]fluoro-2-methylpropanoic acid]?
**A.** Cell uptake ([1]; 10 mM BCH): 1.5±0.1 % ID/5×10^5 cells; Cell uptake ([1]; 10 mM MeAIB): 3.9±0.6 % ID/5×10^5 cells; Cell uptake ([1]; Control (no inhibitor)): 4.8±0.7 % ID/5×10^5 cells; Cell uptake ([2]; 10 mM BCH): 1.6±0.1 % ID/5×10^5 cells; Cell uptake ([2]; 10 mM MeAIB): 3.2±0.4 % ID/5×10^5 cells; Cell uptake ([2]; Control (no inhibitor)): 3.6±0.3 % ID/5×10^5 cells; Cell uptake (U87 glioblastoma cells; 10 mM BCH): 0.8±0.1 % ID/5×10^5 cells; Cell uptake (U87 glioblastoma cells; 10 mM MeAIB): 1.0±0.04 % ID/5×10^5 cells; Cell uptake (U87 glioblastoma cells; Control (no inhibitor)): 1.5±0.1 % ID/5×10^5 cells; Cell uptake ([3]; 10 mM BCH): 1.7±0.1 % ID/5×10^5 cells; Cell uptake ([3]; 10 mM MeAIB): 2.9±0.2 % ID/5×10^5 cells; Cell uptake ([3]; Control (no inhibitor)): 3.9±0.2 % ID/5×10^5 cells; uptake in blood (U87 tumor xenograft; 15 min post injection): 3.5±0.4 %ID/g; uptake in bone (U87 tumor xenograft; 15 min post injection): 2.4±0.7 %ID/g; uptake in brain (U87 tumor xenograft; 15 min post injection): 0.5±0.1 %ID/g; uptake in heart (U87 tumor xenograft; 15 min post injection): 3.1±0.4 %ID/g; uptake in kidney (U87 tumor xenograft; 15 min post injection): 37±4.9 %ID/g; uptake in liver (U87 tumor xenograft; 15 min post injection): 6.6±2.0 %ID/g; uptake in lung (U87 tumor xenograft; 15 min post injection): 4.6±0.6 %ID/g; uptake in muscle (U87 tumor xenograft; 15 min post injection): 3.3±0.7 %ID/g; uptake in pancreas (U87 tumor xenograft; 15 min post injection): 48±11 %ID/g; uptake in spleen (U87 tumor xenograft; 15 min post injection): 11±2.7 %ID/g; uptake in tumor (U87 tumor xenograft; 15 min post injection): 6.4±1.3 %ID/g; uptake in blood (U87 tumor xenograft; 30 min post injection): 3.7±0.7 %ID/g; uptake in bone (U87 tumor xenograft; 30 min post injection): 2.1±0.5 %ID/g; uptake in brain (U87 tumor xenograft; 30 min post injection): 0.6±0.1 %ID/g; uptake in heart (U87 tumor xenograft; 30 min post injection): 3.1±0.4 %ID/g; uptake in kidney (U87 tumor xenograft; 30 min post injection): 28±5.2 %ID/g; uptake in liver (U87 tumor xenograft; 30 min post injection): 6.0±1.0 %ID/g; uptake in lung (U87 tumor xenograft; 30 min post injection): 3.6±0.5 %ID/g; uptake in muscle (U87 tumor xenograft; 30 min post injection): 3.3±0.3 %ID/g; uptake in pancreas (U87 tumor xenograft; 30 min post injection): 50±8.7 %ID/g; uptake in spleen (U87 tumor xenograft; 30 min post injection): 10±1.0 %ID/g; uptake in tumor (U87 tumor xenograft; 30 min post injection): 6.8±0.8 %ID/g; uptake in blood (U87 tumor xenograft; 60 min post injection): 2.1±0.4 %ID/g; uptake in bone (U87 tumor xenograft; 60 min post injection): 2.0±0.1 %ID/g; uptake in brain (U87 tumor xenograft; 60 min post injection): 0.6±0.1 %ID/g; uptake in heart (U87 tumor xenograft; 60 min post injection): 2.8±0.7 %ID/g; uptake in kidney (U87 tumor xenograft; 60 min post injection): 15±3.3 %ID/g; uptake in liver (U87 tumor xenograft; 60 min post injection): 4.4±0.6 %ID/g; uptake in lung (U87 tumor xenograft; 60 min post injection): 2.6±0.8 %ID/g; uptake in muscle (U87 tumor xenograft; 60 min post injection): 2.3±0.3 %ID/g; uptake in pancreas (U87 tumor xenograft; 60 min post injection): 32±11 %ID/g; uptake in spleen (U87 tumor xenograft; 60 min post injection): 6.1±1.1 %ID/g; uptake in tumor (U87 tumor xenograft; 60 min post injection): 4.4±0.8 %ID/g; uptake in blood (U87 tumor xenograft; 120 min post injection): 1.2±0.5 %ID/g; uptake in bone (U87 tumor xenograft; 120 min post injection): 1.0±0.3 %ID/g; uptake in brain (U87 tumor xenograft; 120 min post injection): 0.7±0.2 %ID/g; uptake in heart (U87 tumor xenograft; 120 min post injection): 2.1±0.3 %ID/g; uptake in kidney (U87 tumor xenograft; 120 min post injection): 7.3±1.4 %ID/g; uptake in liver (U87 tumor xenograft; 120 min post injection): 4.1±1.3 %ID/g; uptake in lung (U87 tumor xenograft; 120 min post injection): 1.5±0.4 %ID/g; uptake in muscle (U87 tumor xenograft; 120 min post injection): 1.3±0.3 %ID/g; uptake in pancreas (U87 tumor xenograft; 120 min post injection): 18±6.4 %ID/g; uptake in spleen (U87 tumor xenograft; 120 min post injection): 3.4±1.1 %ID/g; uptake in tumor (U87 tumor xenograft; 120 min post injection): 2.8±0.4 %ID/g; uptake in blood [4, 8]: 4.2±0.3 %ID/g; uptake in bone [4, 8]: 2.5±0.3 %ID/g; uptake in brain [4, 8]: 0.6±0.1 %ID/g; uptake in heart [4, 8]: 3.4±0.3 %ID/g; uptake in kidney [4, 8]: 39±3.3 %ID/g; uptake in liver [4, 8]: 4.8±0.9 %ID/g; uptake in lung [4, 8]: 4.5±1.3 %ID/g; uptake in muscle [4, 8]: 3.9±0.7 %ID/g; uptake in pancreas [4, 8]: 51±10 %ID/g; uptake in spleen [4, 8]: 14±2.8 %ID/g; uptake in tumor [4, 8]: 5.8±0.7 %ID/g; uptake in blood [4, 9]: 3.6±0.4 %ID/g; uptake in bone [4, 9]: 2.4±0.6 %ID/g; uptake in brain [4, 9]: 0.8±0.2 %ID/g; uptake in heart [4, 9]: 3.2±0.3 %ID/g; uptake in kidney [4, 9]: 29±6.1 %ID/g; uptake in liver [4, 9]: 4.7±0.8 %ID/g; uptake in lung [4, 9]: 4.3±1.9 %ID/g; uptake in muscle [4, 9]: 3.4±0.4 %ID/g; uptake in pancreas [4, 9]: 56±7.6 %ID/g; uptake in spleen [4, 9]: 12±4.2 %ID/g; uptake in tumor [4, 9]: 6.1±1.4 %ID/g; uptake in tumor ([4]; 60 min post injection): 4.8±1.2 %ID/g; uptake in blood [4, 10]: 2.9±1.0 %ID/g; uptake in bone [4, 10]: 2.2±0.6 %ID/g; uptake in brain [4, 10]: 0.7±0.1 %ID/g; uptake in heart [4, 10]: 2.9±0.5 %ID/g; uptake in kidney [4, 10]: 20±2.7 %ID/g; uptake in liver [4, 10]: 4.3±0.6 %ID/g; uptake in lung [4, 10]: 2.6±0.6 %ID/g; uptake in muscle [4, 10]: 2.7±0.6 %ID/g; uptake in pancreas [4, 10]: 46±9.5 %ID/g; uptake in spleen [4, 10]: 7.1±0.9 %ID/g; uptake in blood [4, 11]: 1.5±0.1 %ID/g; uptake in bone [4, 11]: 1.0±0.6 %ID/g; uptake in brain [4, 11]: 0.8±0.1 %ID/g; uptake in heart [4, 11]: 2.0±0.2 %ID/g; uptake in kidney [4, 11]: 11±1.4 %ID/g; uptake in liver [4, 11]: 2.6±0.2 %ID/g; uptake in lung [4, 11]: 1.6±0.4 %ID/g; uptake in muscle [4, 11]: 1.3±0.5 %ID/g; uptake in pancreas [4, 11]: 23±6.8 %ID/g; uptake in spleen [4, 11]: 5.6±2.2 %ID/g; uptake in tumor [4, 11]: 5.0±0.4 %ID/g; uptake in blood (SKOV3 tumor xenograft; 15 min post injection): 3.5±0.8 %ID/g; uptake in bone (SKOV3 tumor xenograft; 15 min post injection): 2.2±0.7 %ID/g; uptake in brain (SKOV3 tumor xenograft; 15 min post injection): 0.4±0.1 %ID/g; uptake in heart (SKOV3 tumor xenograft; 15 min post injection): 2.8±0.8 %ID/g; uptake in kidney (SKOV3 tumor xenograft; 15 min post injection): 31±6.8 %ID/g; uptake in liver (SKOV3 tumor xenograft; 15 min post injection): 3.6±1.0 %ID/g; uptake in lung (SKOV3 tumor xenograft; 15 min post injection): 4.8±1.3 %ID/g; uptake in muscle (SKOV3 tumor xenograft; 15 min post injection): 2.8±0.9 %ID/g; uptake in pancreas (SKOV3 tumor xenograft; 15 min post injection): 44±15 %ID/g; uptake in spleen (SKOV3 tumor xenograft; 15 min post injection): 9.8±4.3 %ID/g; uptake in tumor (SKOV3 tumor xenograft; 15 min post injection): 6.2±4.1 %ID/g; uptake in blood (SKOV3 tumor xenograft; 30 min post injection): 3.1±0.7 %ID/g; uptake in bone (SKOV3 tumor xenograft; 30 min post injection): 2.2±0.4 %ID/g; uptake in brain (SKOV3 tumor xenograft; 30 min post injection): 0.5±0.1 %ID/g; uptake in heart (SKOV3 tumor xenograft; 30 min post injection): 2.8±0.5 %ID/g; uptake in kidney (SKOV3 tumor xenograft; 30 min post injection): 22±4.9 %ID/g; uptake in liver (SKOV3 tumor xenograft; 30 min post injection): 3.9±0.6 %ID/g; uptake in lung (SKOV3 tumor xenograft; 30 min post injection): 4.4±0.7 %ID/g; uptake in muscle (SKOV3 tumor xenograft; 30 min post injection): 2.8±0.5 %ID/g; uptake in pancreas (SKOV3 tumor xenograft; 30 min post injection): 40±13 %ID/g; uptake in spleen (SKOV3 tumor xenograft; 30 min post injection): 8.4±2.1 %ID/g; uptake in tumor (SKOV3 tumor xenograft; 30 min post injection): 7.3±3.0 %ID/g; uptake in blood (SKOV3 tumor xenograft; 60 min post injection): 2.1±0.6 %ID/g; uptake in bone (SKOV3 tumor xenograft; 60 min post injection): 1.7±0.6 %ID/g; uptake in brain (SKOV3 tumor xenograft; 60 min post injection): 0.6±0.2 %ID/g; uptake in heart (SKOV3 tumor xenograft; 60 min post injection): 2.6±0.7 %ID/g; uptake in kidney (SKOV3 tumor xenograft; 60 min post injection): 15±4.8 %ID/g; uptake in liver (SKOV3 tumor xenograft; 60 min post injection): 3.6±1.1 %ID/g; uptake in lung (SKOV3 tumor xenograft; 60 min post injection): 3.2±1.1 %ID/g; uptake in muscle (SKOV3 tumor xenograft; 60 min post injection): 2.2±0.7 %ID/g; uptake in pancreas (SKOV3 tumor xenograft; 60 min post injection): 36±8.6 %ID/g; uptake in spleen (SKOV3 tumor xenograft; 60 min post injection): 5.5±1.2 %ID/g; uptake in tumor (SKOV3 tumor xenograft; 60 min post injection): 6.2±3.1 %ID/g; uptake in bone (SKOV3 tumor xenograft; 120 min post injection): 1.6±1.1 %ID/g; uptake in brain (SKOV3 tumor xenograft; 120 min post injection): 0.7±0.3 %ID/g; uptake in heart (SKOV3 tumor xenograft; 120 min post injection): 2.6±1.4 %ID/g; uptake in kidney (SKOV3 tumor xenograft; 120 min post injection): 11±5.0 %ID/g; uptake in liver (SKOV3 tumor xenograft; 120 min post injection): 3.2±0.7 %ID/g; uptake in lung (SKOV3 tumor xenograft; 120 min post injection): 2.3±0.8 %ID/g; uptake in muscle (SKOV3 tumor xenograft; 120 min post injection): 1.7±0.9 %ID/g; uptake in pancreas (SKOV3 tumor xenograft; 120 min post injection): 22±3.6 %ID/g; uptake in spleen (SKOV3 tumor xenograft; 120 min post injection): 4.6±2.3 %ID/g; uptake in tumor (SKOV3 tumor xenograft; 120 min post injection): 5.1±1.6 %ID/g; inhibition of uptake by BCH ([5]; 10 mM BCH, relative to control, most cell lines): 36-68%; inhibition of uptake by MeAIB ([5]; 10 mM MeAIB, relative to control, most cell lines): 10-32%; uptake in tumor cells ([5]; 30 minutes incubation, without inhibitors, range over the cell lines): 2-5 %ID/5×10^5 cells; amino acid transport system mediating uptake / selectivity ([5]; AAT cell inhibition assays with MeAIB and BCH): mixed AATs, likely but not limited to system A and system L; ratio of tumor to muscle [6]: above 2; brain uptake [7]: 0.06±0.01 %ID/g
